The record followed here is patent US12441704B2, “Compounds active towards nuclear receptors” (NUEVOLUTION A/S, priority 2019, dated 2025).

In general, EC50 refers to the concentration that produces a half-maximal response. As a reminder, the IC50 is the concentration at which inhibition is half-maximal. Read a low IC50 as greater potency. The term inhibition denotes the change of the read-out against control, counted positive when it falls. A higher inhibition goes with strong suppression.

Where two headings read alike, the source gives them in different places.

Assay [1] addresses T1, RORγ ligand-binding domain fused to Gal4 (Homo sapiens, UniProt P51449).
T1 construct: Gal4 (galactose-responsive transcription factor); expressed in transfected cells; host or cells: HEK293
T1 sequence (P51449 269-508 limits assumed): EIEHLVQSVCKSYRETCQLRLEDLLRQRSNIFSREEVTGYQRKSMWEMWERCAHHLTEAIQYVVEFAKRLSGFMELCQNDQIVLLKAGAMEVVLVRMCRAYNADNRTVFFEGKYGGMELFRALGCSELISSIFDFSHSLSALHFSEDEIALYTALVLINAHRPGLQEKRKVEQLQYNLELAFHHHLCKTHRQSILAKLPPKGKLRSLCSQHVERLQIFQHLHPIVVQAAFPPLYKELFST
As to the kind of experiment: RORγ Reporter Assay (Gal4). In kind it is cell-based. The gist of the method: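 Percent inhibition was derived from luciferase RLU versus vehicle mean after 24 h compound incubation (37 °C, 0.1% DMSO). The cells were HEK293, transiently co-expressing a Gal4–RORγ ligand-binding-domain fusion plus a UAS-driven luciferase gene.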
A general note: In a reporter assay the amount or activity of a reporter protein is the signal.

In assay [2] the test system is IL-17A secretion in activated PBMCs. The assay can be described thus: IL-17A secretion in activated PBMCs. The format is cell-based, human. The conditions noted are these: for IC50: human PBMCs stimulated with CD3/CD28 Dynabeads for 48 h, absolute IC50. As to the method:
Heparin-treated whole blood from healthy human volunteers was supplied from Hospital de Sant Pau (Barcelona) under the approval of the local ethical review board for human studies (Hospital de Sant Pau, Barcelona, Spain). Human peripheral blood mononuclear cells (PBMCs) were isolated from healthy human volunteers by density gradient centrifugation using the Ficoll-Paque (GE Healthcare). […] Cells were seeded in 384-well plate (DiscoverX), at 40,000 cells per well and cultured 2 h at 37° C. and 5% CO2.
Dose-response curves with compounds were prepared using a 5-fold serial dilution (10 concentrations) in 100% DMSO and further diluted 100-fold in culture medium. Compound solutions (5 μL) were added to the plate containing cells (final DMSO concentration of 0.1%) and incubated for 30 min. Then, cells were stimulated with CD3/CD28 Dynabeads (ThermoFisher, at a bead-to-cell ratio of 1:1) for 48 h at 37° C. and 5% CO2.
IL-17A levels in supernatant were determined by immunoassay using hIL17A QBeads (Intellicyt) and by fluorescence analysis in iQue flow cytometer following the manufacturer's instructions. Inhibition of IL-17A secretion was calculated using the following formula: inhibition=100*[1−[(x−mean basal condition)/(mean top condition−mean basal condition)]]. Activated DMSO-treated cells were used as top condition and activated GNE09461 (10 μM)-treated cells as basal condition.

[3] abbreviates: HEK293 cells co-transfected with RORγ LBD-Gal4 and luciferase reporter, 24 h incubation, absolute EC50, read-out: EC50.

On to `CCN(Cc1ccc(C(F)(F)F)cc1)c1ncnc(NC[C@@H]2CCN([C@H](CO)C(N)=O)C[C@H]2O)c1F` (relative stereo) [Example A7-66-1, rel-(R)-2-((3R,4R)-4-(((6-(ethyl(4-(trifluoromethyl)benzyl)amino)-5-fluoropyrimidin-4-yl)amino)methyl)-3-hydroxypiperidin-1-yl)-3-hydroxypropanamide OR rel-(R)-2-((3S,4S)-4-(((6-(ethyl(4-(trifluoromethyl)benzyl)amino)-5-fluoropyrimidin-4-yl)amino)methyl)-3-hydroxypiperidin-1-yl)-3-hydroxypropanamide], for which the EC50 in assay [1] (setting [3]) worked out at 0.026 µM. Also, the IC50 in assay [2] (Homo sapiens, PBMC, 48 h) was 0.018 µM.
On to `[2H]C([2H])(C(N)=O)N1CC[C@@H](CNc2ncnc(N(Cc3ccc(C(F)(F)F)cc3)C3CC3)c2F)[C@H](O)C1` (relative stereo) [Example A7-69, rel-2-((3R,4R)-4-(((6-(cyclopropyl(4-(trifluoromethyl)benzyl)amino)-5-fluoropyrimidin-4-yl)amino)methyl)-3-hydroxypiperidin-1-yl)acetamide-2,2-d2], for which the EC50 in assay [1] (setting [3]) worked out at 0.0027 µM. This molecule had an IC50 in assay [2] (Homo sapiens, PBMC, 48 h) of 0.0031 µM.
Consider `Cn1cc(-c2ccc(CN(c3ncnc(NC[C@]4(O)CCN(CC(N)=O)C[C@H]4O)c3F)C3CC3)c(F)c2)cn1` (single isomer, unassigned) [Example D5-05-2], for which the concentration for a half-maximal effect (EC50) in assay [1] (setting [3]) came to 0.029 µM. In addition, the half-inhibitory concentration (IC50) in assay [2] is 0.2 µM.
`NC(=O)CN1CC[C@@H](CNc2ncnc(N(Cc3cccc(OC(F)(F)F)c3)C3CC3)c2F)[C@H](O)C1` (racemic) [Example A7-56, rac-2-((3R,4R)-4-(((6-(cyclopropyl(3-(trifluoromethoxy)benzyl)amino)-5-fluoropyrimidin-4-yl)amino)methyl)-3-hydroxypiperidin-1-yl)acetamide]: the EC50 in assay [1] (setting [3]) is 0.0053 µM; in assay [1] (compounds of the present disclosure, value from Table 2 herein, read-out: Gal4 assay EC50), < 0.1 µM. The molecule also had an inhibition at 10 µM in assay [2] (PBMC, @10 uM, human PBMCs stimulated with CD3/CD28 Dynabeads) of 66%.
In the case of `Cn1cc(-c2ccc(CN(c3ncnc(NC[C@@H]4CCN(CC(N)=O)C[C@H]4O)c3F)C3CC3)c(F)c2)cn1` (racemic) [Example A7-75, rac-2-((3R,4R)-4-(((6-(cyclopropyl(2-fluoro-4-(1-methyl-1H-pyrazol-4-yl)benzyl)amino)-5-fluoropyrimidin-4-yl)amino)methyl)-3-hydroxypiperidin-1-yl)acetamide], in assay [1] (setting [3]), the EC50 came out at 0.013 µM. In addition, the IC50 in assay [2] (Homo sapiens, PBMC, 48 h) worked out at 0.018 µM.
Consider `Cc1cc(C(F)(F)F)ccc1CN(c1ncnc(NCC2CCN(CC(N)=O)CC2)c1F)C1CC1` [Example A7-02, 2-(4-(((6-(cyclopropyl(2-methyl-4-(trifluoromethyl)benzyl)amino)-5-fluoropyrimidin-4-yl)amino)methyl)piperidin-1-yl)acetamide], for which the EC50 in assay [1] (setting [3]) worked out at 0.076 µM. This molecule also showed an IC50 in assay [2] (Homo sapiens, PBMC, 48 h) of 0.058 µM.
`NC(=O)CN1CCC(CNc2ncnc(N(Cc3ccc(C(F)(F)F)cc3)C3CC3)c2F)(C(N)=O)CC1` [Example A7-44, 1-(2-amino-2-oxoethyl)-4-(((6-(cyclopropyl(4-(trifluoromethyl)benzyl)amino)-5-fluoropyrimidin-4-yl)amino)methyl)piperidine-4-carboxamide]: the EC50 in assay [1] (setting [3]) is 0.024 µM. This molecule also yielded an IC50 in assay [2] (Homo sapiens, PBMC, 48 h) of 0.074 µM.
`NC(=O)CN1CC[C@@H](CNc2ncnc(N(Cc3ccc(C(O)(C(F)(F)F)C(F)(F)F)cc3)C3CC3)c2F)[C@H](O)C1` (single isomer, unassigned) [Example A7-54-1]: the EC50 in assay [1] (setting [3]) was 0.0038 µM. In assay [2] (Homo sapiens, PBMC, 48 h), this molecule displayed an IC50 of 0.0098 µM.
Consider `CC(F)(F)c1ccc(CN(c2ncnc(NC[C@@H]3CCN(CC(N)=O)C[C@H]3O)c2F)C2CC2)cc1` (racemic) [Example A7-40, rac-2-((3R,4R)-4-(((6-(cyclopropyl(4-(1,1-difluoroethyl)benzyl)amino)-5-fluoropyrimidin-4-yl)amino)methyl)-3-hydroxypiperidin-1-yl)acetamide], for which the EC50 in assay [1] (setting [3]) turned out to be 0.0055 µM. Half-maximal inhibition in assay [2] (Homo sapiens, PBMC, 48 h) (IC50) required 0.0077 µM.
Regarding `CCN(Cc1ccc(C(O)(C(F)(F)F)C(F)(F)F)cc1)c1ncnc(NC[C@]2(O)CCN(CC(N)=O)C[C@H]2O)c1F` (relative stereo) [Example D5-04, rel-2-((3R,4R)-4-(((6-(ethyl(4-(1,1,1,3,3,3-hexafluoro-2-hydroxypropan-2-yl)benzyl)amino)-5-fluoropyrimidin-4-yl)amino)methyl)-3,4-dihydroxypiperidin-1-yl)acetamide], the EC50 in assay [1] (setting [3]) came out at 0.0055 µM. Moreover, inhibition in assay [2] (Homo sapiens, PBMC, 48 h) was half-maximal at 0.001 µM (IC50).
Consider `N#CC1(CNc2ncnc(N(Cc3ccc(C(F)(F)F)cc3)C3CC3)c2F)CCN(CC(N)=O)CC1` [Example A7-50, 2-(4-cyano-4-(((6-(cyclopropyl(4-(trifluoromethyl)benzyl)amino)-5-fluoropyrimidin-4-yl)amino)methyl)piperidin-1-yl)acetamide], for which, in assay [1] (setting [3]), the EC50 was 0.0081 µM. Also, half-maximal inhibition in assay [2] (Homo sapiens, PBMC, 48 h) (IC50) required 0.04 µM.
The corresponding values for `CCN(Cc1ccc(C(F)(F)F)cc1)c1ncnc(NC[C@H]2CCN(CC(N)=O)C[C@@H]2O)c1F` (racemic) [Example A7-21, rac-2-((3R,4R)-4-(((6-(ethyl(4-(trifluoromethyl)benzyl)amino)-5-fluoropyrimidin-4-yl)amino)methyl)-3-hydroxypiperidin-1-yl)acetamide] are 0.012 µM and 0.08 µM.
Take `NC(=O)CN1CC[C@@H](CNc2ncnc(N(Cc3ccc(C(F)(F)F)cc3)[C@H]3C[C@@H](F)C3)c2F)[C@H](O)C1` (racemic) [Example A7-32, rac-2-((3R,4R)-4-(((5-fluoro-6-(((1s,3R)-3-fluorocyclobutyl)(4-(trifluoromethyl)benzyl)amino)pyrimidin-4-yl)amino)methyl)-3-hydroxypiperidin-1-yl)acetamide]: in assay [1] (setting [3]), the EC50 amounted to 0.034 µM. Also, in assay [2] (Homo sapiens, PBMC, 48 h), the IC50 came out at 0.22 µM.
The corresponding values for `NC(=O)CN1CCC(O)(CNc2ncnc(N(Cc3ccc(C(F)(F)F)cc3)C3CC3)c2F)CC1` [Example A7-10, 2-(4-(((6-(cyclopropyl(4-(trifluoromethyl)benzyl)amino)-5-fluoropyrimidin-4-yl)amino)methyl)-4-hydroxypiperidin-1-yl)acetamide] are 0.0033 µM and 0.017 µM.
As to `CC(C)(C(N)=O)N1CC[C@@H](CNc2ncnc(N(Cc3ccc(C(F)(F)F)cc3)C3CC3)c2F)[C@H](O)C1` (relative stereo) [Example A7-55, rel-2-((3R,4R)-4-(((6-(cyclopropyl(4-(trifluoromethyl)benzyl)amino)-5-fluoropyrimidin-4-yl)amino)methyl)-3-hydroxypiperidin-1-yl)-2-methylpropanamide], the EC50 in assay [1] (setting [3]) is 0.0047 µM. In assay [2] (Homo sapiens, PBMC, 48 h), this molecule gave an IC50 of 0.0049 µM.
As to `NC(=O)C(CO)N1CCC(CO)(CNc2ncnc(N(Cc3ccc(C(F)(F)F)cc3)C3CC3)c2F)CC1` (centres unmarked) [Example A7-70, 2-(4-(((6-(cyclopropyl(4-(trifluoromethyl)benzyl)amino)-5-fluoropyrimidin-4-yl)amino)methyl)-4-(hydroxymethyl)piperidin-1-yl)-3-hydroxypropanamide], the EC50 in assay [1] (setting [3]) was 0.0088 µM. The molecule further displayed an IC50 in assay [2] (Homo sapiens, PBMC, 48 h) of 0.012 µM.
On to `NC(=O)CN1CCC(CNc2ncnc(N(Cc3ccc(C(F)(F)F)cc3)C3CC3)c2F)(c2ncon2)CC1` [Example A7-81, 2-(4-(((6-(Cyclopropyl(4-(trifluoromethyl)benzyl)amino)-5-fluoropyrimidin-4-yl)amino)methyl)-4-(1,2,4-oxadiazol-3-yl)piperidin-1-yl)acetamide], for which, in assay [1] (setting [3]), the half-maximal effective concentration (EC50) was found to be 0.0053 µM. Moreover, inhibition in assay [2] (Homo sapiens, PBMC, 48 h) was half-maximal at 0.12 µM (IC50).
